Reference: ChEMBL document CHEMBL3727346, “6-(pyridinyl)-4-pyrimidone derivates as tau protein kinase 1 inhibitors” (2011)
The source made the active and inactive calls. The rule behind the calls is not given here.

Target: Glycogen synthase kinase-3 beta splice variant X1 (Bos taurus) (UniProt A0A059UE90)
Assay: Inhibition of bovine cerebral TPK1 assessed as reduction in P-GS1 phosphorylation using [32gammaP]ATP incubated for 2 hrs by liquid scintillation counting method

| inhibition | Structure (SMILES) |
| --- | --- |
| Active | Cn1c(N2CCO[C@@H](c3cccc(NS(C)(=O)=O)c3)C2)nc(-c2ccncc2F)cc1=O |
| Active | Cn1c(N2CCO[C@@H](c3ccc(-c4nnco4)cc3)C2)nc(-c2ccncc2F)cc1=O |
| Active | Cn1c(N2CCO[C@@H](c3ccc(NC(=O)c4ccccc4)cc3)C2)nc(-c2ccncc2F)cc1=O |
| Active | CCOc1ccc(-c2ccc([C@H]3CN(c4nc(-c5ccncc5F)cc(=O)n4C)CCN3)cc2)cc1 |
| Active | Cn1c(N2CCO[C@@H](c3ccc(N(C(=O)c4ccccc4)C4CCCCC4)cc3)C2)nc(-c2ccncc2F)cc1=O |
| Active | Cn1c(N2CCO[C@@H](c3ccc(N4CC[C@@H](N5CCOCC5)C4)cc3)C2)nc(-c2ccncc2F)cc1=O |
| Active | CN1CCN(CCOc2ccc([C@H]3CN(c4nc(-c5ccncc5F)cc(=O)n4C)CCO3)cc2)CC1 |
| Active | Cn1c(N2CCO[C@@H](c3c(F)cccc3Cl)C2)nc(-c2ccncc2F)c(F)c1=O |
| Active | CN(C)c1cccc2c(S(=O)(=O)Nc3ccc([C@H]4CN(c5nc(-c6ccncc6F)cc(=O)n5C)CCO4)cc3)cccc12 |
| Active | Cc1nc(-c2ccc([C@H]3CN(c4nc(-c5ccncc5F)cc(=O)n4C)CCO3)cc2)no1 |
| Active | CN(C)c1ccc([C@H]2CN(c3nc(-c4ccncc4F)cc(=O)n3C)CCN2)cc1 |
| Active | Cn1c(N2CCO[C@@H](c3ccc(NC(=O)CN4CCN(c5ccccc5)CC4)cc3)C2)nc(-c2ccncc2F)cc1=O |
| Active | CN(c1ccc([C@H]2CN(c3nc(-c4ccncc4F)cc(=O)n3C)CCO2)cc1)C1CCCCC1 |
| Active | Cn1c(N2CCO[C@@H](c3ccc(NC(=O)C4(C)CC4)cc3)C2)nc(-c2ccncc2F)cc1=O |
| Active | Cn1c(N2CCO[C@@H](c3ccc(NC(=O)OCc4ccccc4)cc3)C2)nc(-c2ccncc2F)cc1=O |
| Active | Cn1c(N2CCOC(c3cccc(-c4nccs4)c3)C2)nc(-c2ccncc2F)cc1=O (stereo not drawn) |
| Active | Cn1c(N2CCO[C@@H](c3ccc(OCCN4CCNCC4)cc3)C2)nc(-c2ccncc2F)cc1=O |
| Active | CN1CCN(c2ccc([C@H]3CN(c4nc(-c5ccncc5F)cc(=O)n4C)CCN3)cc2)CC1 |
| Active | CN(c1ccc([C@H]2CN(c3nc(-c4ccncc4F)cc(=O)n3C)CCO2)cc1)C12CC3CC(CC(C3)C1)C2 |
| Active | Cn1c(N2CCO[C@@H](c3ccc([N+](=O)[O-])cc3)C2)nc(-c2ccncc2F)cc1=O |

| inhibition | Structure (SMILES) |
| --- | --- |
| Active | Cn1c(N2CCO[C@@H](c3ccc(N4CC[C@H](N5CCCCC5)C4)cc3)C2)nc(-c2ccncc2F)cc1=O |
| Active | Cn1c(N2CCNC(c3ccc(N4CCN(C(=O)OCc5ccccc5)CC4)cc3)C2)nc(-c2ccncc2F)cc1=O (stereo not drawn) |
| Active | Cn1c(N2CCN[C@@H](c3ccc(-c4ccc(Cl)c(Cl)c4)cc3)C2)nc(-c2ccncc2F)cc1=O |
| Active | Cn1c(N2CCO[C@@H](c3ccc(NS(=O)(=O)CCl)cc3)C2)nc(-c2ccncc2F)cc1=O |
| Active | Cn1c(N2CCO[C@@H](c3ccc(Nc4ccncc4)cc3)C2)nc(-c2ccncc2F)cc1=O |
| Active | Cn1c(N2CCO[C@@H](c3ccc(N4CCCNC4=O)cc3)C2)nc(-c2ccncc2F)cc1=O |
| Active | CC(O)c1ccc([C@H]2CN(c3nc(-c4ccncc4F)cc(=O)n3C)CCO2)cc1 (stereo partly drawn) |
| Active | CCN(CC)C(=O)Nc1ccc([C@H]2CN(c3nc(-c4ccncc4F)cc(=O)n3C)CCO2)cc1 |
| Active | CSc1ccc([C@H]2CN(c3nc(-c4ccncc4F)cc(=O)n3C)CCO2)cc1 |
| Active | Cn1c(N2CCO[C@@H](c3ccc(F)cc3)C2)nc(-c2ccncc2F)cc1=O |
| Active | COCCN(c1ccc([C@H]2CN(c3nc(-c4ccncc4F)cc(=O)n3C)CCO2)cc1)C1CCCCC1 |
| Active | Cn1c(N2CCO[C@@H](c3cccc(NC(=O)C4CC4)c3)C2)nc(-c2ccncc2F)cc1=O |
| Active | Cn1c(N2CCO[C@@H](c3ccc(N(C(=O)C4CC4)C4CCCCC4)cc3)C2)nc(-c2ccncc2F)cc1=O |
| Active | CC(=O)N1CCN(CCOc2ccc([C@H]3CN(c4nc(-c5ccncc5F)cc(=O)n4C)CCO3)cc2)CC1 |
| Active | Cn1c(N2CCO[C@@H](c3ccc(N4CCOC4=O)cc3)C2)nc(-c2ccncc2F)cc1=O |
| Active | Cn1c(N2CCO[C@@H](c3ccc(NS(C)(=O)=O)cc3)C2)nc(-c2ccncc2F)cc1=O |
| Active | COC(C)(C)C(=O)N(C)c1ccc([C@H]2CN(c3nc(-c4ccncc4F)cc(=O)n3C)CCO2)cc1 |
| Active | Cn1c(N2CCO[C@@H](c3ccc(N4CCCCC4=O)cc3)C2)nc(-c2ccncc2F)cc1=O |
| Active | Cn1c(N2CCN[C@H](c3ccc(C#N)cc3)C2)nc(-c2ccncc2F)cc1=O |
| Active | CC(C)N1CCN(c2ccc([C@H]3CN(c4nc(-c5ccncc5F)cc(=O)n4C)CCN3)cc2)CC1 |

| inhibition | Structure (SMILES) |
| --- | --- |
| Active | Cn1c(N2CCO[C@@H](c3ccc(N4CCN(CCO)C4=O)cc3)C2)nc(-c2ccncc2F)cc1=O |
| Active | CN(C)C(=O)c1ccc([C@H]2CN(c3nc(-c4ccncc4F)cc(=O)n3C)CCO2)cc1 |
| Active | Cn1c(N2CCN[C@@H](c3ccc(-c4ccc(OCC5CC5)cc4)cc3)C2)nc(-c2ccncc2F)cc1=O |
| Active | CC(=O)OCCN1CCN(c2ccc([C@H]3CN(c4nc(-c5ccncc5F)cc(=O)n4C)CCN3)cc2)CC1 |
| Active | Cn1c(N2CCO[C@@H](c3ccc(OCCN4CCN(C(=O)c5ccccc5)CC4)cc3)C2)nc(-c2ccncc2F)cc1=O |
| Active | C[C@@H]1CN(c2ccc([C@H]3CN(c4nc(-c5ccncc5F)cc(=O)n4C)CCO3)cc2)C[C@H](C)O1 |
| Active | CN(c1ccc([C@H]2CN(c3nc(-c4ccncc4F)cc(=O)n3C)CCO2)cc1)C1CCCCCC1 |
| Active | Cn1c(N2CCO[C@@H](c3ccc(NC(=O)C(C)(C)O)cc3)C2)nc(-c2ccncc2F)cc1=O |
| Active | Cn1c(N2CCO[C@@H](c3ccc(OCCCN4CCOCC4)cc3)C2)nc(-c2ccncc2F)cc1=O |
| Active | Cn1c(N2CCOC(c3cccc(-c4cncnc4)c3)C2)nc(-c2ccncc2F)cc1=O (racemic) |
| Active | COc1ccc(NC(=O)C2CC2)cc1[C@H]1CN(c2nc(-c3ccncc3F)cc(=O)n2C)CCO1 |
| Active | CN(c1ccc([C@H]2CN(c3nc(-c4ccncc4F)cc(=O)n3C)CCN2)cc1)C1CCCCC1 |
| Active | CN(c1ccc([C@H]2CN(c3nc(-c4ccncc4F)cc(=O)n3C)CCO2)cc1)C1CCOCC1 |
| Active | Cn1c(N2CCO[C@@H](c3ccc(OCC4CC4)cc3)C2)nc(-c2ccncc2F)cc1=O |
| Active | CCN(CC)c1ccc([C@H]2CN(c3nc(-c4ccncc4F)cc(=O)n3C)CCO2)cc1 |
| Active | Cc1ccc(-c2ccc([C@H]3CN(c4nc(-c5ccncc5F)cc(=O)n4C)CCN3)cc2)cc1 |
| Active | CC(C)Oc1ccc([C@H]2CN(c3nc(-c4ccncc4F)cc(=O)n3C)CCO2)cc1 |
| Active | Cn1c(N2CCO[C@@H](c3ccc(OCCCN4CCCC4)cc3)C2)nc(-c2ccncc2F)cc1=O |
